Source: paper PMC9014415, “Repositioning of a Diaminothiazole Series Confirmed to Target the Cyclin-Dependent Kinase CRK12 for Use in the Treatment of African Animal Trypanosomiasis” (Journal of Medicinal Chemistry, 2022)

Columns and labels:
T. vivax [1] = assay: Ex vivo drug sensitivity assay, T. vivax (STIB 719/ILRAD 560); assay type: cell-based; conditions: Trypanosoma vivax
Description: Test compounds were resuspended to a final concentration of 10 mg/mL in DMSO. […]
1.3 Ex vivo drug sensitivity assays - Trypanosoma vivax
Since T. vivax cannot be cultured axenically, BSF trypanosomes were harvested from an infected mouse with high parasitemia via cardiac puncture and used directly in ex vivo assays. EC50 values were determined against T, vivax (STIB 719/ ILRAD 560) as previously described3, with minor modifications. Briefly, cell densities were determined using a Neubauer chamber and then diluted to a seeding density of 4 x 105 trypanosomes / mL. BSF trypanosomes were cultured in HMI-9 (IMDM) media containing 20% (v/v) bovine serum. Assay plates were incubated at 37 °C with 5 % CO2, for a total of 45 h prior to addition 10 µL of Resazurin (12.5 mg in 100 mL phosphate buffered saline, Aldrich) into each well, followed by a further 3 h incubation. Absorbance was read using a SpectraMax (Gemini XS) fluorescence reader at an excitation wavelength of 536 nm and an emission wavelength of 588 nm. EC50 values were determined using SOFTmax Pro 5.2 analysis […]
software. […]

L6 cells = assay: Cytotoxicity assay, rat skeletal myoblasts (L6); assay type: cell-based
Description: 1.4 Cytotoxicity assays – Rat skeletal myoblasts (L6)
The cytotoxicity of test compounds was evaluated using a rat skeletal myoblast (L6) cell line, as previously described3, but with minor modifications. Cells were grown in RPMI media supplemented with 10% (v/v) fetal calf serum. L6 cells at a seeding density of 2 x 10^4 cells/mL were incubated in microtiter plates overnight at 37 °C and 5 % CO2 until adherent. The following day, test compounds were added to the plates (3-fold serial dilutions), prior to incubation for 69 h. Following incubation, 10 µL of Resazurin (12.5 mg in 100 mL phosphate buffered saline, Aldrich) was added to each well and the plates were incubated for a further 3 h. The plates were read using a SpectraMax (Gemini XS) fluorescence reader at an excitation wavelength of 536 nm and an emission wavelength of 588 nm. EC50 values were determined using SOFTmax Pro 5.2 analysis software. All experiments were conducted as technical replicates, with at least three biological replicates. […]

[2] = Bovine liver microsome stability; assay type: in vitro ADME; conditions: intrinsic clearance
Description: 2.2 Microsomal stability studies […]
(b) Bovine liver microsome stability. Test compounds (0.5 µM) were incubated with 0.5 mg/mL bovine liver microsomes (Xenotech LLC TM) in 50 mM potassium phosphate buffer, pH7.4 and the reaction initiated upon addition of excess NADPH (8 mg/mL in 50 mM potassium phosphate buffer, pH7.4).
Aliquots (50 µL) of the incubation mixture were taken at time zero, 3, 6, 9, 15 and 30 min then mixed with acetonitrile (100 µL) to stop the reaction. An internal standard was added to all samples, prior to centrifugation (10 min, 1,665 g, RT) to sediment precipitated protein. Reaction plates were then sealed prior to UPLCMSMS analysis using a Quattro Premier XE (Waters corporation, USA).
XLfit (IDBS, UK) was used to calculate the exponential decay and consequently the rate constant (k) from the ratio of peak area of test compound to internal standard at each timepoint. The rate of intrinsic clearance (CLi) of each test compound was then calculated using the following […]
CLi(mL/min/g liver) = k x V x microsomal protein yield
Where V (mL/mg protein) is the incubation volume/ mg protein added and microsomal protein yield is taken as 52.5 mg protein/ g of liver. Verapamil (0.5 µM) was used as a positive control to confirm acceptable assay performance. […]

T. congolense [3] = assay: In vitro drug sensitivity assay, T. congolense (IL3000); assay type: cell-based; conditions: Trypanosoma congolense; IL3000 strain
Description: 1.2 In vitro drug sensitivity assays - Trypanosoma congolense
EC50 values for test compounds against T. congolense (IL3000 strain) were conducted as previously described3 with minor modifications.4 Briefly, trypanosome cell densities were determined using a CASY cell counter (Schärfe) and diluted to a seeding density of 2 x 105 trypanosomes/mL. BSF trypanosomes were grown in HMI-9 (IMDM) media supplemented with 20% (v/v) bovine serum.1 Test compounds were resuspended to a final concentration of 10 mg/mL in DMSO. Assays plates were incubated at 34 °C with 5 % CO2, for a total of 69 h, prior to addition of 10 µL of Resazurin (12.5 mg in 100 mL phosphate buffered saline, Aldrich) into each well, followed by a further 3 h incubation. Absorbance was read using a SpectraMax (Gemini XS) fluorescence reader at an excitation wavelength of 536 nm and an emission wavelength of 588 nm. EC50 values were determined using SOFTmax Pro 5.2 analysis software. All experiments were conducted with technical duplicates, and at least three biological replicates. […]

[4] = Aqueous kinetic solubility by laser nephelometry; assay type: physicochemical; conditions: MilliQ water with 2.5% DMSO, read-out: Sol (kinetic solubility); for solubility kinetic: range 250-12 µM
Description: 2. Drug metabolism and pharmacokinetics
The aqueous solubility of test compounds was measured using laser nephelometry. Compounds were subject to serial dilution from 10 mM to 0.5 mM in DMSO. Aliquot were then mixed with MilliQ water to obtain an aqueous dilution plate with a final concentration range of 250 – 12 µM. The final DMSO concentration in these plates was 2.5%. Triplicate aliquots were transferred to a flat-bottomed polystyrene plate which was immediately read on a NEPHELOstar nephelometer (BMG Lab Technologies). The laser scatter caused by insoluble particulates (relative nephelometry units, RNU) was plotted against compound concentration using a segmental regression fit, with the point of inflection being quoted as the compound’s aqueous solubility (µM).
Solubility of compound 1 was measured by a different method. Here, compound 1 was dissolved in DMSO to give a 10 mM solution and solubility test samples prepared by adding a volume (5 µL) of this stock solution to phosphate buffered saline, pH 7.4 (195 µL, Sigma-Aldrich). This

T. vivax [5] = assay: NMRI mouse efficacy model, T. vivax; assay type: in vivo, Trypanosoma vivax; conditions: mice; 10 mg/kg SC once daily for 4 days
Description: (§1) 3. In vivo efficacy studies
(§2) The T. congolense (IL3000) and T. vivax (ILRAD V34) cell lines7, 8, both originating from Kenya, were used in the following in vivo mouse studies. For studies in cattle, either Trypanosoma congolense (savannah) KONT 2/133, 224) or T. vivax STIB 719 was used.
(§3) 3.1 Mouse efficacy studies for T. brucei brucei.
(§4) Mouse efficacy studies for T. brucei brucei were carried out as previously detailed.9 3.2 NMRI mouse efficacy studies for T. congolense and T. vivax.
(§5) Mouse models of infections were carried out using standardized protocols. Briefly, 1 mL samples of cryopreserved T. congolense, or T. vivax-infected blood harvested directly from an infected mouse, were diluted with Hanks Balanced Salt Solution plus 20 mM glucose (HBSS+G) to 5 x 10^4 trypomastigotes/mL (5 x 105 for T. vivax). Female mice (NMRI) were inoculated IP on day 0 with 0.2 mL/animal (equivalent to ~ 1 x 104 T. congolense or ~ 1 x 105 T. vivax per animal). The level of parasitaemia was inspected microscopically on day 3 using tail blood smears, counting 20 high powered fields (× 400 magnification). For untreated or treated animals whose tail smears exceeded 50 parasites/field, precise parasite levels were established using a Neubauer haemocytometer; mice with a parasite burden over 1 x 108 were promptly and humanely terminated (T. congolense only, from our experience the mice will not survive for a further 24 h). Alternatively, in the case of T. vivax-infected mice the immune system will bring the infection to a sub-lethal level (below limit of detection) […]
(§6) followed by cycles of high and low parasitaemia. Eventually mice infected with T. vivax succumb to the infection between 30 – 60 days post-infection.
(§7) Suppression of parasitaemia - mouse
(§8) On day 3 post-infection, animals were randomly allocated to groups, with 3 mice/group. Infected animals were dosed with one of the following: diaminazene diaceturate IP. – 40 mg/kg once only as a control (early-stage trypanocide used to clear the parasites in the systemic circulation and in tissues other than CNS), compound 1 (SC) at 3, 10, 30 and 50 mg free base/kg twice and once daily for 4 d or a single dose, or compound 2 (SC) at 3 and 10 mg free base /kg once daily for 4 d, once daily for 2 d or a single dose, one group of 3 mice acted as an untreated control group. The dose solutions were prepared daily, using 5% DMSO: 40% PEG400: 55% MilliQ H2O for test compounds and 10% DMSO: 90% peanut oil for standard drugs. Alternatively, compound 2 was delivered for 48 h via SC implanted ALZET osmotic pumps (6, 12, 25 and 50 mg free base/mL, vehicle: 50% DMSO […]
(§9) and 50% deionized water).
(§10) Response to treatment was determined by monitoring parasitaemia twice a week until day 21.
(§11) After day 21, the mice were checked once a week until 63 d post-treatment. Mice surviving to the end of the experiment, and with blood smears clear of parasites, were considered cured. […]
(§12) The parasites were obtained from a donor calf. This isolate is resistant to diminazene (20 mg/kg) and isometamidium (1 mg/kg) in cattle, and diminazene (7 mg/kg) and isometamidium (>1 mg/kg) in mice. Calves were parasitaemic by study day 6. Calves (n = 5) were treated with compound 1 (5 mg/kg, SC, twice 12 h apart) on study

T. congolense [6] = assay: NMRI mouse efficacy model, T. congolense; assay type: in vivo, Trypanosoma congolense; conditions: mice; 10 mg/kg SC once daily for 4 days
Description: as §1, §2, §3, §4, §5, §6, §7, §8, §9, §10, §11, §12

SMILES | EC50 (T. vivax [1]) | Bovine Microsome Cli (BLM: bovine microsomal clearance) [2] | EC50 (T. congolense [3]) | solubility kinetic [4] | solubility kinetic at 24 h ([4]; pH 7.4, range 250-12 µM) | EC50 (L6 cells) | Efficacy at 10 mg/kg SC for 4 days, T. vivax (T. vivax [5]) | Efficacy at 10 mg/kg SC for 4 days, T. congo (T. congolense [6])
CC(C)CS(=O)(=O)N[C@H]1CC[C@H](Nc2nc(N)c(C(=O)c3c(F)cc(CN4CCN(C)CC4)cc3F)s2)CC1.Cl [Compound 3, N-((trans)-4-((4-Amino-5-(2,6-difluoro-4-((4-methylpiperazin-1-yl)methyl)benzoyl)thiazol-2-yl)amino)cyclohexyl)-2-methylpropane-1-sulfonamide Hydrochloride] | – | <0.5 mL/min/g | – | > 250 µM | – | – | No cure (0/3) | Partial cure (1/3)
CC(C)CS(=O)(=O)N[C@H]1CC[C@H](Nc2nc(N)c(C(=O)c3c(F)cc(CN4CCOCC4)cc3F)s2)CC1.Cl [Compound 4, N-((trans)-4-((4-Amino-5-(2,6-difluoro-4-((4-morpholinomethyl)benzoyl)thiazol-2-yl)amino)cyclohexyl))-2-methylpropane-1-sulfonamide Hydrochloride] | – | 1 mL/min/g | – | – | – | – | No cure (0/3) | No cure (0/3)
CC(C)CS(=O)(=O)N[C@H]1CC[C@H](Nc2nc(N)c(C(=O)c3c(F)cc(CN4CCCC4)cc3F)s2)CC1.Cl [Compound 5, N-((trans)-4-((-4-Amino-5-(2,6-difluoro-4-(pyrrolidin-1-ylmethyl)benzoyl)thiazol-2-yl)amino)cyclohexyl)-2-methyl-propane-1-sulfonamide Hydrochloride] | – | <0.5 mL/min/g | – | – | 220 µM | – | Full cure (3/3) | Partial cure (1/3)

Further lines, with some results ahead:

EC50 (T. vivax [1]) | Bovine Microsome Cli (BLM: bovine microsomal clearance) [2] | EC50 (T. congolense [3]) | solubility kinetic [4] | solubility kinetic at 24 h ([4]; pH 7.4, range 250-12 µM) | SMILES | EC50 (L6 cells) | Efficacy at 10 mg/kg SC for 4 days, T. vivax (T. vivax [5]) | Efficacy at 10 mg/kg SC for 4 days, T. congo (T. congolense [6])
1 nM | 0.8 mL/min/g | 16 nM | > 250 µM | – | CC(C)CS(=O)(=O)N[C@H]1CC[C@H](Nc2nc(N)c(C(=O)c3c(F)cc(CCN(C)C)cc3F)s2)CC1.Cl [Compound 7, N-(((trans)-4-((4-Amino-5-(4-(2-dimethylamino)ethyl)-2,6-difluorobenzoyl)thiazol-2-yl)amino)cyclohexyl)-2-methylpropane-1-sulfonamide Hydrochloride] | 18000 nM | – | –
6.9 nM | 1.3 mL/min/g | 2.5 nM | > 250 µM | – | CC(C)CS(=O)(=O)N[C@H]1CC[C@H](Nc2nc(N)c(C(=O)c3c(F)cc(CN4CCC4)cc3F)s2)CC1.Cl [Compound 6, N-(((trans)-4-((4-Amino-5-(4-azetidin-1-ylmethyl)-2,6-difluorobenzoyl)thiazol-2-yl)amino)cyclohexyl)-2-methylpropane-1-sulfonamide Hydrochloride] | 5300 nM | – | –
0.5 nM | <0.5 mL/min/g | 8.3 nM | > 250 µM | – | CC(C)CS(=O)(=O)N[C@H]1CC[C@H](Nc2nc(N)c(C(=O)c3c(F)cc(CN)cc3F)s2)CC1.Cl [Compound 9, N-((trans)-4-((4-Amino-5-(4-(aminomethyl)-2,6-difluorobenzoyl)thiazol-2-yl)amino)cyclohexyl)-2-methylpropane-1-sulfonamide Hydrochloride] | 5900 nM | – | –
0.05 nM | 7.1 mL/min/g | 0.59 nM | > 250 µM | – | CC(C)CS(=O)(=O)N[C@H]1CC[C@H](Nc2nc(N)c(C(=O)c3c(Cl)cc(CN(C)C)cc3Cl)s2)CC1.Cl [Compound 11, N-((trans)-4-((4-Amino-5-(4-(dimethylaminomethyl)-2,6-dichlorobenzoyl)thiazol-2-yl)amino)cyclohexyl)-2-methylpropane-1-sulfonamide Hydrochloride] | 4300 nM | – | –
